Source: US12390467B2, “Necroptosis inducers or autophagy inhibitors or a combination thereof” (The University of Toledo, priority 2018, dated 2025)

Key:
Type in all cases: cell-based
[1] = test system: MDA-MB231 (TNBC cell line); assay: MTT cell viability assay, MDA-MB231; conditions: Homo sapiens, MDA-MB-231, 72 h, read-out: IC50 ± SD, MDA-MB231
Procedure: (§1) The following cancer and non-cancer cell lines were used in the initial cytotoxicity screening of the TPH104 compounds: triple negative breast cancer (TNBC): MDA-MB468, MDA-MB 231, and BT-20; non-TNBC: MCF-7 and ZR-75-1; ovarian: Ov2008; prostate: DU145; colon: HCT-116, S1, and LOVO; lung: H460; normal kidney: HEK-293; normal breast: HMEC; and normal colon: CRL-1459. All cells were cultured in Dulbecco's modified Eagle medium (DMEM), supplemented with 10% fetal bovine serum (FBS), and 1% penicillin/streptomycin (P/S). Cells were allowed to grow as adherent monolayers in T25 flasks in a humidified incubator with 5% CO2 at 37° C. for a period of 24 h, unless otherwise specified for certain experiments.
(§2) The MTT assay was used to determine the cytotoxicity of all of the compounds. Briefly, in a 96-well flat-bottom cell culture plate, the cells were seeded at a density between 3-5×10^3 cells/well (180 μl in each well) and incubated for 24 h (a hemocytometer was used for cell counting). The next day, the cells were incubated with different concentrations of the nine compounds (0, 0.1, 0.3, 1, 3, 10, 30, and 100 μM) for 72 h. After 72 h, 20 μl of 5 mg/ml of 3-(4,5-dimethylthiazol-2-yl)-2,5-diphenyltetrazolium bromide (MTT) was added to the plate and incubated with the cells for 3 h at 37° C. In this experiment, the living cells will reduce the soluble MTT dye to non-soluble purple formazan crystals. Following incubation, the media containing MTT removed via suction and 100 μL of 100% dimethyl sulfoxide (DMSO) was added to dissolve the formazan crystals. Subsequently, the plate was shaken for 2 minutes and the absorbance was measured at a wavelength of 570 nm using a SpectraMax iD3 Multi-Mode Microplate Reader (Molecular Devices, Sunnyvale, CA). The IC50 values of each compound were calculated and used to determine the selectivity ratio (IC50 in normal cells/IC50 in cancer cells) of each compound as previously described. Based on the results obtained from these experiments, the compound TPH104, which had the lowest IC50 value, was selected for further experiments.

[2] = test system: MDA-MB468 (TNBC cell line); assay: MTT cell viability assay, MDA-MB468; conditions: Homo sapiens, MDA-MB-468, 72 h, read-out: IC50 ± SD, MDA-MB468
Procedure: as §1, §2

BT-20 (TNBC cell line) = assay: MTT cell viability assay, BT-20
Procedure: as §1, §2

TNBC cell lines = assay: Cytotoxicity screening (MTT), TNBC cell lines overall; conditions: TNBC cell lines overall
Excerpt: To this end, several commercial databases were searched, and 17 similar molecules from the VitasM database were retrieved with considerable structural diversity in terms of the substitution on the aryl ring A attached to the thienopyrimidine scaffold and aryl ring B attached to hydrazino moiety. Further, the biological evaluation of the 17 molecules sheds light on the structural features deemed important for the selective cytotoxicity shown by this class of molecules. With this understanding, the 17 molecules were subjected to a screening protocol comprising of two TNBC, two non-TNBC, and one normal cell lines.
as §1, §2

[3] = test system: MDA-MB231, MDA-MB468, and BT-20; assay: Cell colony formation assay; conditions: vs vehicle
Procedure: This assay was used to measure the size and rate of colony formation for TNBC cells, with or without TPH104, as previously reported. Briefly, in a 6-well cell culture plate, cells were seeded at a density of 250,000 cells/well and allowed to grow/attach overnight. The next day, the cells were incubated with different concentration of TPH104 (0.1, 1, or 10 μM) or vehicle and incubated for 12 h at 37° C. Following incubation, the cells were harvested, counted, and reseeded at a density of 500-800 cells/well (1 ml in each well), in a new 6-well plate, with complete medium for 10 days. The medium was changed every 2 days in order to prevent cell starvation. On the 10th day, the colonies were fixed with absolute methanol at room temperature for 30 minutes. Subsequently, cells were stained with 0.1% crystal violet dye (Sigma, USA) for an additional 30 minutes. Finally, the fixed and stained colonies were viewed, pictured (at 4, 10, and 20×) and counted using an EVOS-FLC microscope (Thermo Fisher Scientific, Wayne, MI, USA). The following equation was used to calculate the colony formation rate: Colony formation rate=number of colonies formed/number of seeded cells (500)×100% Trans-Well Migration Assay

[4] = test system: BT-20 and MDA-MB468 cells; assay: Mitochondrial membrane potential assay (MitoTracker Red / Alexa Fluor 488 annexin V); conditions: 0.5, 1, and 2 μM
Procedure: This assay is a direct measure of the structural integrity of mitochondria. Cells were seeded as indicated in the cell cycle assay and incubated for 24 h at 37° C. The next day, TPH104 (0.5, 1, 2 μM) or vehicle and incubated with the cells for 12 h. The cells were harvested, washed 2× with PBS, counted, and their concentrations were adjusted to 5×10^6 cells/well in the culture medium. Subsequently, 4 μl of the 10 μM solution of mitotracker red was added to each 1 ml aliquot of cells and incubated with the cells for 30 minutes at 37° C. The cells were washed 2× with PBS and re-suspended in the 100 μl of 1× annexin-binding buffer. The cells were stained with Alexa Fluor for 15 minutes and analyzed using flow cytometry as described in the manufacturer protocol (Thermofisher, USA).

[5] = target: T1, P-gp (ABCB1), DU145TXR prostate cancer cells (Homo sapiens, UniProt P08183); assay: Calcein AM assay for P-gp modulation; conditions: concentration dependent
T1 construct: endogenous in cells; host or cells: DU145TXR prostate cancer cells
T1 sequence (P08183 whole entry): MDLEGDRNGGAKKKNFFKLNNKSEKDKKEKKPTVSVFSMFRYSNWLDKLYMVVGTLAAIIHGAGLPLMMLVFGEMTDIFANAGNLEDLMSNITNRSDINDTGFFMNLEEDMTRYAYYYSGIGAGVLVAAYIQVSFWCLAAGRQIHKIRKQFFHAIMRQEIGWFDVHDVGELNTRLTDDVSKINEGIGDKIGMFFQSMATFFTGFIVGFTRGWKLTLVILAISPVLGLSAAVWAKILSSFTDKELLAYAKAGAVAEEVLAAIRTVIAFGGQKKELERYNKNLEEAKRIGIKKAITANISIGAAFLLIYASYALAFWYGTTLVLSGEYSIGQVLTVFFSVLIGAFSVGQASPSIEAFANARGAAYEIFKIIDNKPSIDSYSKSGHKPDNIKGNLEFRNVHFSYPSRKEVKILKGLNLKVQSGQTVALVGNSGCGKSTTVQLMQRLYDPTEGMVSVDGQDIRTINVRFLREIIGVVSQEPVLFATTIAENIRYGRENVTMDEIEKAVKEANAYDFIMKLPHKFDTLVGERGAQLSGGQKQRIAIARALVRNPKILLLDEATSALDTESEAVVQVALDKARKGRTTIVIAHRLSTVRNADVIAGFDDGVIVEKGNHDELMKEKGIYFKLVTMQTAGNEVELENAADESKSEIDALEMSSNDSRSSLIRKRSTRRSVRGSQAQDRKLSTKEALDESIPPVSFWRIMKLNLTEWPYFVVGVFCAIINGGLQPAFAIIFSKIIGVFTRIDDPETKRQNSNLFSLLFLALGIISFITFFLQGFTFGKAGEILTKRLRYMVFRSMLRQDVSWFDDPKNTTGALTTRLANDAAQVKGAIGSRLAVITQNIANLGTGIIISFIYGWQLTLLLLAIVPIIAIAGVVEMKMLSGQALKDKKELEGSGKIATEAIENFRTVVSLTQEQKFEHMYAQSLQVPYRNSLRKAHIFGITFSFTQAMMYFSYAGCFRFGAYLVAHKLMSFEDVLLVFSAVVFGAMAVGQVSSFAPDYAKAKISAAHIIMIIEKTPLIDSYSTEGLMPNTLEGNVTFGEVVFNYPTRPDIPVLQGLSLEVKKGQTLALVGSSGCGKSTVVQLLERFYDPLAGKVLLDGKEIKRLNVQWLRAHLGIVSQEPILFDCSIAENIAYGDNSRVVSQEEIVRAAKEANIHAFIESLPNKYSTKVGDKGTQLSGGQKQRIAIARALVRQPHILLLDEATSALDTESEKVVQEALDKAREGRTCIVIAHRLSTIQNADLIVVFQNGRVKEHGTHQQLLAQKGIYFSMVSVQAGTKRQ
Procedure: Ability of P-gp to efflux Calcein AM is used to identify the molecules which interfere with P-gp transporter activity. About 10000 cells of DU145TXR prostate cancer cells were seeded in each well in 96 well plates and allowed to grow until confluency for 4-5 days. Then media was replaced with phenol red free RPMI media and cells were treated with indicated concentrations of TPH104s and 1 μg/mL of Calcein AM. Fluorescence measured after 60 minutes with excitation at 485/20 nm and at emission 535/20 nm using the BioTek Cytation 5 imaging multi-mode reader (Bio-Tek, Winooski, VT). DMSO (0.5% v/v) was used as the vehicle, and 15 μM of Pgp inhibitor SMU 45 was used as a positive control. (n=6 in each trial).

In the case of `COc1ccc(O)c(/C=N/Nc2ncnc3scc(-c4ccc(C)cc4)c23)c1` [TPH104], the IC50 [1] is reported as 190 nM, the IC50 [2] is reported as 250 nM and the “percent cell survival, TPH104 + rapamycin vs TPH104 only” value (BT-20 (TNBC cell line); + 100 nM rapamycin) is reported as “significant increase”. For the same compound, the “percent BT-20 survival, TPH104 + 3-methyladenine” value (BT-20 (TNBC cell line); + 0.5 mM) was “no significant change”, the IC50 (BT-20 (TNBC cell line); Homo sapiens, BT-20, MTT, 72 h, TNBC) was 290 nM and the IC50 (TNBC cell lines) was under 1000 nM. The colony formation rate ([3]; 0.1, 1, 10 μM for 12 h) was “significantly inhibited”, the “number and size of the colonies formed” value ([3]; 1 and 10 μM, all 3 TNBC cell lines) was “significantly decreased” and the mitochondrial membrane potential [4] was “did not significantly alter”. The “number of cells in the second quadrant (Q2), apoptotic cells” value ([4]; flow cytometry) was “did not significantly alter” and the “efflux function of ABCB1” value [5] was “blocking the efflux function”.
